# Tested on: GABA(A) receptors
# Experiment: Evaluation of the potentiating effect on GABA(A) receptors (electrophysiology, GABA(A) receptor expressing cells)
# Type: cell-based
# Settings: concentration giving 20% increase of the current generated by 2 μM GABA
# Description: Using GABA(A) receptor expressing cells prepared according to Guideline for Generation of Stable Cell Lines (website of Lonza Japan; Non-patent Literature 4), the present test is done for evaluating the potentiating effect of a drug on GABA(A) receptors based on the electric current raised by GABA. The GABA(A) receptor expressing cells were used in electrophysiological study, wherein the electric current was measured when 2 μM GABA solution and then a mixture of 2 μM GABA and the test compound were added to the cells. […] In addition, the electric current generated by a mixture of 2 μM GABA solution and the test compound with 10 μM flumazenil was measured, and the inhibition rate for the electric current by adding flumazenil was calculated compared to the electric current obtained in the absence of flumazenil.
row,SMILES,The potentiating effect on GABA(A) receptors EC20 [µM]
1,"NC(=O)C1(c2nc(-c3ccc(Cl)cc3)no2)CCC1 [Example 8, 1-[3-(4-chlorophenyl)-1,2,4-oxadiazol-5-yl]cyclobutane-1-carboxamide]",3.2
2,"NC(=O)C1(c2nc(-c3ccc(Cl)cc3)no2)CCCC1 [Example 9, 1-[3-(4-chlorophenyl)-1,2,4-oxadiazol-5-yl]cyclopentane-1-carboxamide]",2.7
3,"NC(=O)C1(c2nc(-c3ccc(F)cc3)no2)CCOCC1 [Example 10, 4-[3-(4-fluorophenyl)-1,2,4-oxadiazol-5-yl]tetrahydro-2H-pyran-4-carboxamide]",247
4,"CC(C)(C(N)=O)c1noc(-c2ccc(F)cc2)n1 [Example 12, 2-[5-(4-fluorophenyl)-1,2,4-oxadiazol-3-yl]-2-methylpropanamide]",234
5,"CC(C)(C(N)=O)c1noc(-c2ccc(Br)cc2)n1 [Example 14, 2-[5-(4-bromophenyl)-1,2,4-oxadiazol-3-yl]-2-methylpropanamide]",32
6,"CC(C)(C(N)=O)c1nnc(-c2ccc(Cl)cc2)o1 [Example 15, 2-[5-(4-chlorophenyl)-1,3,4-oxadiazol-2-yl]-2-methylpropanamide]",>300
7,"CC(C)(c1nc(-c2ccc(F)cc2)no1)S(N)(=O)=O [Example 17, 2-[3-(4-Fluorophenyl)-1,2,4-oxadiazol-5-yl]propane-2-sulfonamide]",45
8,"CC(C)(c1nc(-c2ccc(Br)cc2)no1)S(N)(=O)=O [Example 19, 2-[3-(4-bromophenyl)-1,2,4-oxadiazol-5-yl]propane-2-sulfonamide]",34
9,"CC(C)(c1noc(-c2ccc(Br)cc2)n1)S(N)(=O)=O [Example 21, 2-[5-(4-bromophenyl)-1,2,4-oxadiazol-3-yl]propane-2-sulfonamide]",9.6
10,"CC(C)(c1nnc(-c2ccc(F)cc2)o1)S(N)(=O)=O [Example 22, 2-[5-(4-fluorophenyl)-1,3,4-oxadiazol-2-yl]propane-2-sulfonamide]",>300
11,"CC(C)(c1nnc(-c2ccc(Cl)cc2)o1)S(N)(=O)=O [Example 23, 2-[5-(4-chlorophenyl)-1,3,4-oxadiazol-2-yl]propane-2-sulfonamide]",190
12,"CC(C)(c1nnc(-c2ccc(Br)cc2)o1)S(N)(=O)=O [Example 24, 2-[5-(4-bromophenyl)-1,3,4-oxadiazol-2-yl]propane-2-sulfonamide]",86
13,"CN1C(=O)CCC1c1nc(-c2ccc(F)cc2F)no1 (centres unmarked) [Example 26, 5-[3-(2,4-difluorophenyl)-1,2,4-oxadiazol-5-yl]-1-methylpyrrolidin-2-one]",>100

# Tested on: Slc: ddy male mice
# Experiment: not given
# Settings: mouse, in vivo, po, 50 mg/kg, 1 h
row,average of the five mice's walking time [s],SMILES
1,180,"CN1C(=O)CCC1c1nc(-c2ccc(F)cc2F)no1 (centres unmarked) [Example 26, 5-[3-(2,4-difluorophenyl)-1,2,4-oxadiazol-5-yl]-1-methylpyrrolidin-2-one]"

# Same assay, conditions: mouse, in vivo, po, 100 mg/kg, 1 h
row,SMILES,average of the five mice's walking time [s]
1,"NC(=O)C1(c2nc(-c3ccc(Cl)cc3)no2)CCC1 [Example 8, 1-[3-(4-chlorophenyl)-1,2,4-oxadiazol-5-yl]cyclobutane-1-carboxamide]",180
2,"NC(=O)C1(c2nc(-c3ccc(Cl)cc3)no2)CCCC1 [Example 9, 1-[3-(4-chlorophenyl)-1,2,4-oxadiazol-5-yl]cyclopentane-1-carboxamide]",180
3,"NC(=O)C1(c2nc(-c3ccc(F)cc3)no2)CCOCC1 [Example 10, 4-[3-(4-fluorophenyl)-1,2,4-oxadiazol-5-yl]tetrahydro-2H-pyran-4-carboxamide]",180
4,"CC(C)(c1nc(-c2ccc(Br)cc2)no1)S(N)(=O)=O [Example 19, 2-[3-(4-bromophenyl)-1,2,4-oxadiazol-5-yl]propane-2-sulfonamide]",180
5,"CC(C)(c1nnc(-c2ccc(Cl)cc2)o1)S(N)(=O)=O [Example 23, 2-[5-(4-chlorophenyl)-1,3,4-oxadiazol-2-yl]propane-2-sulfonamide]",180
6,"CC(C)(c1nnc(-c2ccc(Br)cc2)o1)S(N)(=O)=O [Example 24, 2-[5-(4-bromophenyl)-1,3,4-oxadiazol-2-yl]propane-2-sulfonamide]",180

# Results, then the compound that gave them:
row,average of the five mice's walking time [s],SMILES
1,180,"CC(C)(C(N)=O)c1noc(-c2ccc(F)cc2)n1 [Example 12, 2-[5-(4-fluorophenyl)-1,2,4-oxadiazol-3-yl]-2-methylpropanamide]"
2,180,"CC(C)(C(N)=O)c1noc(-c2ccc(Br)cc2)n1 [Example 14, 2-[5-(4-bromophenyl)-1,2,4-oxadiazol-3-yl]-2-methylpropanamide]"
3,180,"CC(C)(C(N)=O)c1nnc(-c2ccc(Cl)cc2)o1 [Example 15, 2-[5-(4-chlorophenyl)-1,3,4-oxadiazol-2-yl]-2-methylpropanamide]"
4,180,"CC(C)(c1nc(-c2ccc(F)cc2)no1)S(N)(=O)=O [Example 17, 2-[3-(4-Fluorophenyl)-1,2,4-oxadiazol-5-yl]propane-2-sulfonamide]"
5,180,"CC(C)(c1noc(-c2ccc(Br)cc2)n1)S(N)(=O)=O [Example 21, 2-[5-(4-bromophenyl)-1,2,4-oxadiazol-3-yl]propane-2-sulfonamide]"
6,180,"CC(C)(c1nnc(-c2ccc(F)cc2)o1)S(N)(=O)=O [Example 22, 2-[5-(4-fluorophenyl)-1,3,4-oxadiazol-2-yl]propane-2-sulfonamide]"

# Source: patent publication US11718592B2, “Oxadiazole derivative” (Sumitomo Pharma Co., Ltd., priority 2020, dated 2023)
